These results are taken from patent US20240150368A1, “ULK INHIBITORS AND METHODS OF USE THEREOF” (Deciphera Pharmaceuticals, LLC, priority 2022, published 2024).

SMILES strings stand for the structures. Bounds are passed on as bounds.

Assay [1] relates to ULK kinase substrate ATG13 (pS318-ATG13) in HCT-116 cells. Kind of assay: pATG13 levels of mutant KRas HCT-116 cells after treatment with ULK inhibitors in combination with trametinib (ELISA). The assay is classed as cell-based, human. On the procedure: pATG13 Levels of Mutant KRas HCT-116 Cells after Treatment with ULK Inhibitors in Combination with Trametinib
HCT-116 human colon cancer cells (10000 cells/well) were added to a 384-well tissue-culture treated plate in 50 μL of pre-warmed DMEM medium supplemented with 10% characterized fetal bovine serum (Invitrogen, Carlsbad, CA), 100 units/mL penicillin G, and 100 μg/mL streptomycin and allowed to grow overnight at 37° C., 5% CO2, and 95% humidity. The following day, 10 μL of media containing trametinib or DMSO as a control was added to wells. The final concentration of trametinib in wells was 250 nM. A dose response of a test compound (0.6 μL per well) was added. DMSO (0.6 μL) was added to control wells. The plate was briefly shaken to mix wells and then incubated at 37° C. overnight. The next day, the media was aspirated and cells were washed with Dulbecco's Phosphate Buffered Saline (Gibco). Cells were lysed using MPER lysis buffer (Pierce, Rockford, IL) containing Halt Phosphatase and Protease Inhibitors (Pierce, Rockford, IL) and Phosphatase inhibitor cocktail 2 (Sigma, St. Louis, MO) at 4° C. for 10 minutes with shaking.
(§1) Cellular levels of phospho-Serine 318 ATG13 (pATG13) were measured via an ELISA method. Total ATG13 Antibody (Cell Signaling Cat #13273) was used to coat the wells. The plate was incubated at 4° C. overnight and washed with ELISA wash buffer (Biolegend Cat #421601). The wells were then blocked with assay diluent (Biolegend Cat #421203) for 1 h at rt. Plate wells were washed with ELISA wash buffer. Cell lysate was added to wells and incubated at rt for 2 h. Plate wells were washed with ELISA wash buffer. Biotinylated pS318-ATG13 antibody (Rockland Immunochemicals Cat #600-401-C49) was diluted in assay diluent and added to each well and incubated at rt for 1 h. Plate wells were washed with ELISA wash buffer. Streptavidin linked to horseradish peroxidase (Thermo Fisher Cat #21140) was diluted in assay diluent and added to each well and incubated at rt for 1 h. Plate wells were washed with ELISA wash buffer. High sensitivity TMB substrate (Biolegend Cat #421101) was added to each well and incubated at rt for 20 minutes. The reaction was stopped with 2.0N sulfuric acid. The plate was analyzed at on a plate reader measuring absorbance at 450 nm and 540 nm (background). Signal was calculated by first subtracting the background absorbance at 540 nm from the absorbance at 450 nm for each well. Next, the background corrected absorbance at 450 nm from blank wells was subtracted from test wells. Data was compared to control wells to determine % ATG13 phosphorylation. GraphPad Prism was used to calculate IC50 values.

In assay [2] the test system is ULK kinase substrate ATG13 (pS318-ATG13) in T24 cells. Kind of assay: pATG13 levels of mutant HRas T24 cells after treatment with ULK inhibitors in combination with trametinib (ELISA). The assay is classed as cell-based, human. Particulars: in combination with trametinib 250 nM. On the procedure:
pATG13 Levels of Mutant HRas T24 Cells after Treatment with ULK Inhibitors in Combination with Trametinib
T24 human urinary bladder cancer cells (25000 cells/well) were added to a 96-well tissue-culture treated plate in 100 μL of pre-warmed DMEM medium supplemented with 10% characterized fetal bovine serum (Invitrogen, Carlsbad, CA), 100 units/mL penicillin G, and 100 μg/mL streptomycin and allowed to grow overnight at 37° C., 5% CO2, and 95% humidity. The following day, 100 μL of media containing trametinib or DMSO as a control was added to wells. The final concentration of trametinib in wells was 250 nM. A dose response of a test compound (0.5 μL per well) was added. DMSO (0.5 μL) was added to control wells. The plate was briefly shaken to mix wells and then incubated at 37° C. overnight. The next day, the media was aspirated and cells were washed with Dulbecco's Phosphate Buffered Saline (Gibco). Cells were lysed using MPER lysis buffer (Pierce, Rockford, IL) containing Halt Phosphatase and Protease Inhibitors (Pierce, Rockford, IL) and Phosphatase inhibitor cocktail 2 (Sigma, St. Louis, MO) at 4° C. for 10 min with shaking.
as §1, with “min.” for “minutes.”

Take `CC/C(Nc1cnn(C(C)C)c1)=C1/C(=O)Nc2ccc(C(=O)NCC(F)(F)F)cc21` [Example 4, (Z)-3-(1-((1-isopropyl-1H-pyrazol-4-yl)amino)propylidene)-2-oxo-N-(2,2,2-trifluoroethyl)indoline-5-carboxamide]: the half-inhibitory concentration (IC50) in assay [1] is at most 100 nM.
For `CC/C(Nc1cnn(C2CCN(C(C)C)CC2)c1)=C1/C(=O)Nc2ccc(C(=O)N(C)CC(F)(F)F)cc21` [Example 7], the half-maximal inhibitory concentration (IC50) in assay [1] and in assay [2] was at most 100 nM throughout.
For the compound `CC/C(Nc1cnn(C2CCN(C(C)C)CC2)c1)=C1/C(=O)Nc2ccc(C(=O)NCC(F)(F)F)cc21` [Example 8], the IC50 in assay [1] and in assay [2] was at most 100 nM each time.
Regarding `CC/C(Nc1cnn(C2CCN(C(C)C)CC2)c1)=C1/C(=O)Nc2ccc(C(=O)N(C)CCOC)cc21` [Example 9], the results for the IC50 in assay [1] and in assay [2] were at most 100 nM and 100 to 300 nM, respectively.
For the compound `CC/C(Nc1cnn(C2CCN(C(C)C)CC2)c1)=C1/C(=O)Nc2ccc(C(=O)NCC(C)C)cc21` [Example 16], the IC50 in assay [1] and in assay [2] was at most 100 nM in each case.
`CC/C(Nc1cnn(C2CCN(C(C)C)CC2)c1)=C1/C(=O)Nc2ccc(C(=O)NCCC#N)cc21` [Example 26]: the half-inhibitory concentration (IC50) in assay [1] is at most 100 nM.
As to `CC/C(Nc1ccc(N2CCN(C(C)C)CC2)cc1)=C1/C(=O)Nc2ccc(C(=O)NC[C@H]3CCCO3)cc21` [Example 47], the IC50 in assay [1] was at most 100 nM.
For the compound `CC/C(Nc1cnn(C2CCNCC2)c1)=C1/C(=O)Nc2ccc(C(=O)NC[C@H]3CCCO3)cc21` [Example 52], the half-inhibitory concentration (IC50) in assay [1] was at most 100 nM.
On to `CC/C(Nc1cnn(C2CC3CCC(C2)N3C)c1)=C1/C(=O)Nc2ccc(C(=O)NC[C@H]3CCCO3)cc21` (stereo partly shown) [Example 53], for which the half-maximal inhibitory concentration (IC50) in assay [1] is at most 100 nM.
In the case of `CC/C(Nc1cnn(C2CN(C)C2)c1)=C1/C(=O)Nc2ccc(C(=O)NC[C@H]3CCCO3)cc21` [Example 54], the IC50 in assay [1] was at most 100 nM.
Same read-out and setting: the value for `CC/C(Nc1cnn(C2CCN(C(C)C)CC2)c1)=C1/C(=O)Nc2ccc(C(=O)NC[C@@H](C)OC)cc21` [Example 58] was at most 100 nM.
For the compound `CC/C(Nc1ccc(N2CC3CC(C2)N3C)cc1)=C1/C(=O)Nc2ccc(C(=O)NCC(F)(F)F)cc21` [Example 60], in assay [1], the 50% inhibitory concentration (IC50) is at most 100 nM.
For the compound `CC/C(Nc1ccc(N2C[C@H]3CN(C)C[C@H]3C2)cc1)=C1/C(=O)Nc2ccc(C(=O)NCC(F)(F)F)cc21` [Example 61], the IC50 in assay [1] is at most 100 nM.
With `CC/C(Nc1ccc(N2CCN(C(C)C)CC2)cn1)=C1/C(=O)Nc2ccc(C(=O)NC[C@H]3CCCO3)cc21` [Example 93], in assay [1], the IC50 is at most 100 nM.
As to `CC/C(Nc1cnn(C2CCN(C(C)C)CC2)c1)=C1/C(=O)Nc2ccc(C(=O)NCCOC)cc21` [Example 98], the IC50 in assay [1] and in assay [2] was at most 100 nM in each case.
As to `CC/C(Nc1cnn(CC)c1)=C1/C(=O)Nc2ccc(C(=O)NCC(F)(F)F)cc21` [Example 107], the IC50 in assay [1] was at most 100 nM.
Regarding `CC/C(Nc1cnn(C(F)(F)F)c1)=C1/C(=O)Nc2ccc(C(=O)NCC(F)(F)F)cc21` [Example 113], the IC50 in assay [1] was at most 100 nM.
`CC/C(Nc1cnn(C(F)F)c1)=C1/C(=O)Nc2ccc(C(=O)NCC(F)(F)F)cc21` [Example 114]: the half-maximal inhibitory concentration (IC50) in assay [1] was at most 100 nM.
As for `CC/C(Nc1cnn(C2CCC2)c1)=C1/C(=O)Nc2ccc(C(=O)NCC(F)(F)F)cc21` [Example 117], the 50% inhibitory concentration (IC50) in assay [1] is at most 100 nM.
On to `CC/C(Nc1cnn(C2CCN(C(C)C)CC2)c1)=C1/C(=O)Nc2ccc(C(C)=O)cc21` [Example 123], for which the 50% inhibitory concentration (IC50) in assay [1] is 100 to 300 nM.
Turning to `CC/C(Nc1cnn(C(C)C)c1)=C1/C(=O)Nc2ccc(C(=O)NCC(C)C)cc21` [Example 130], the concentration for half-maximal inhibition (IC50) in assay [1] was at most 100 nM.
Regarding `CC/C(Nc1cnn(C(C)C)c1)=C1/C(=O)Nc2ccc(C(=O)NCC(C)(C)F)cc21` [Example 135], the half-maximal inhibitory concentration (IC50) in assay [1] is at most 100 nM.
With `CC/C(Nc1cnn(C(C)C)c1)=C1/C(=O)Nc2ccc(C(=O)NCC3(C(F)(F)F)CC3)cc21` [Example 140], the half-maximal inhibitory concentration (IC50) in assay [1] is at most 100 nM.
